Experimental data as given in ChEMBL document CHEMBL3046608, “Efficient isolation of catechins from green tea and characterization of interaction property of catechins with proteins by HPLCUV/DAD combined with ultrafiltration” (Med Chem Res, 2012).

Tests used:
Albumin [1] = target: T1, Albumin (Homo sapiens, UniProt P02768); assay: Binding affinity to 0.6 mM Homo sapiens (human) serum albumin by ultrafiltration-HPLC-UV/DAD method; format: ADME
Plasma [2] = assay: (§1) Total plasma protein binding in Homo sapiens (human) by ultrafiltration-HPLC-UV/DAD method; format: ADME, cell-free
Plasma [3] = assay: (§2) Total plasma protein binding in Rattus norvegicus Wistar (rat) by ultrafiltration-HPLC-UV/DAD method; format: ADME, cell-free
Albumin [4] = target: T1, Albumin; assay: Binding affinity to 0.06 mM Homo sapiens (human) serum albumin by ultrafiltration-HPLC-UV/DAD method; format: ADME
Lipid bilayer = assay: Binding affinity to Rattus norvegicus Wistar (rat) pancreatic phospholipid membrane by ultrafiltration-HPLC-UV/DAD method
Rattus norvegicus [5] = species on record: Rattus norvegicus; assay: Binding affinity to Rattus norvegicus Wistar (rat) pancreatic membrane protein by ultrafiltration-HPLC-UV/DAD method
[6] = Diluted plasma protein binding in Rattus norvegicus Wistar (rat) by ultrafiltration-HPLC-UV/DAD method; format: ADME, cell-free; details: read-out: PPB (converted)
[7] = as §1; format: ADME, cell-free; details: read-out: PPB (converted)
[8] = Diluted plasma protein binding in Homo sapiens (human) by ultrafiltration-HPLC-UV/DAD method; format: ADME, cell-free; details: read-out: PPB (converted)
[9] = as §2; format: ADME, cell-free; details: Wistar, read-out: PPB (converted)
Rattus norvegicus [10] = species on record: Rattus norvegicus; assay: Selectivity ratio of binding affinity to Rattus norvegicus Wistar (rat) pancreatic membrane protein to Rattus norvegicus Wistar (rat) pancreatic phospholipid membrane

T1 sequence (P02768 whole entry): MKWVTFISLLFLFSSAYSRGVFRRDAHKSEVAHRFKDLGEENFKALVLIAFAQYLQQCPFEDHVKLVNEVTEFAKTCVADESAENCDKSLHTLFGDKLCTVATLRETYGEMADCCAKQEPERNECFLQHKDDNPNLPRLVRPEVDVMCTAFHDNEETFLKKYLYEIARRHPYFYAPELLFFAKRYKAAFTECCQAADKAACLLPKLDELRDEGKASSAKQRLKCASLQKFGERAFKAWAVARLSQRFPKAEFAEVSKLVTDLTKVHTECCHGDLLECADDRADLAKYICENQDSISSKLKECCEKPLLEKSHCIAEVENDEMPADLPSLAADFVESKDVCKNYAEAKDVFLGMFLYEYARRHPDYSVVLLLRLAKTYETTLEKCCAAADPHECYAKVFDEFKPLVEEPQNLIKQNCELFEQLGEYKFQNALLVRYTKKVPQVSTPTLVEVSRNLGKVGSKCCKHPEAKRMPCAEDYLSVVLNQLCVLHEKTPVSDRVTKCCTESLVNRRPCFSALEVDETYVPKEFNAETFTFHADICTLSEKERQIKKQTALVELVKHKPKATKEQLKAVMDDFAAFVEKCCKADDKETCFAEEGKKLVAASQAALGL

| SMILES | Activity (Albumin [1]) | PPB (Plasma [2]) | PPB (Plasma [3]) | Activity (Albumin [4]) | Activity (Lipid bilayer) | Activity (Rattus norvegicus [5]) | fraction unbound [6] | fraction unbound [7] | fraction unbound [8] | fraction unbound [9] | Ratio (Rattus norvegicus [10]) |
| --- | --- | --- | --- | --- | --- | --- | --- | --- | --- | --- | --- |
| Cn1c(=O)c2c(ncn2C)n(C)c1=O [CAFFEINE] | 72.7% | 80% | 80% | 58.4% | 62.8% | – | – | – | – | – | – |
| Oc1cc(O)c2c(c1)O[C@@H](c1ccc(O)c(O)c1)[C@H](O)C2 [(-)-CATECHIN] | 65.6% | – | – | 30.9% | – | 36.9% | 0.55 | 0.15 | 0.55 | 0.15 | – |
| O=C(O[C@@H]1Cc2c(O)cc(O)cc2O[C@@H]1c1ccc(O)c(O)c1)c1cc(O)c(O)c(O)c1 [EPICATECHIN GALLATE] | 85.8% | – | – | 69.5% | 91.5% | 39.2% | – | 0.15 | – | 0.15 | 2 |
| O=C(O[C@@H]1Cc2c(O)cc(O)cc2O[C@@H]1c1cc(O)c(O)c(O)c1)c1cc(O)c(O)c(O)c1 [EPIGALOCATECHIN GALLATE] | 85.2% | – | – | 68.7% | 78.8% | 37.4% | – | 0.15 | – | 0.15 | – |
